Test results: PubChem BioAssay (NCI)
Values joined by “and” are separate entries in the source; they are usually repeats but may differ in a detail not shown here. Equal values may be shown once.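 Cells were grown in 96-well plates and exposed to each compound for 48 hours at five concentrations; endpoints were interpolated linearly between bracketing concentrations, or set to the highest concentration if not reached. GI50 = concentration required for 50% inhibition of growth. Definition used: TGI = concentration required for complete inhibition of growth.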

Experiments:
Assay in all cases: NCI anticancer screen, dose series, 48 h
A498 renal = test system: A498 renal
EKVX NSCLC = test system: EKVX NSCLC
HOP-62 NSCLC = test system: HOP-62 NSCLC
HOP-92 NSCLC = test system: HOP-92 NSCLC
K-562 leukemia = test system: K-562 leukemia
MCF7 breast = test system: MCF7 breast
NCI-H23 lung = test system: NCI-H23 lung
OVCAR-5 ovarian = test system: OVCAR-5 ovarian
SW-620 colon = test system: SW-620 colon
UACC-257 melanoma = test system: UACC-257 melanoma

Compound	GI50 (A498 renal)	TGI (A498 renal)	GI50 (EKVX NSCLC)	TGI (EKVX NSCLC)	GI50 (HOP-62 NSCLC)	TGI (HOP-62 NSCLC)	GI50 (HOP-92 NSCLC)	TGI (HOP-92 NSCLC)	GI50 (K-562 leukemia)	TGI (K-562 leukemia)	GI50 (MCF7 breast)	TGI (MCF7 breast)	GI50 (NCI-H23 lung)	TGI (NCI-H23 lung)	GI50 (OVCAR-5 ovarian)	TGI (OVCAR-5 ovarian)	GI50 (SW-620 colon)	TGI (SW-620 colon)	GI50 (UACC-257 melanoma)	TGI (UACC-257 melanoma)
COc1ccc(S(=O)(=O)Nc2c(/C=C\c3cc(OC)c(OC)c(OC)c3)ccc(OC)c2O)cc1OC	0.0413 µM	0.291 µM	0.452 µM	> 100 µM	0.61 µM	> 100 µM	0.0801 µM	> 100 µM	0.0927 µM	> 100 µM	0.0405 µM	> 100 µM	0.318 µM	> 100 µM	0.751 µM	> 100 µM	0.167 µM	> 100 µM	> 78.2 µM	> 100 µM
Nc1c(S(=O)(=O)O)cc2c(c1Cl)C(=O)c1ccccc1C2=O	> 100 µM	> 100 µM	> 100 µM	> 100 µM	> 100 µM	> 100 µM	> 100 µM	> 100 µM	> 100 µM	> 100 µM	> 100 µM	> 100 µM	> 100 µM	> 100 µM	> 100 µM	> 100 µM	> 100 µM	> 100 µM	> 100 µM	> 100 µM
C=C(C=O)[C@@H]1CC=C(C=O)CC1	28.8 µM	77.8 µM	14.5 µM	67.6 µM	24.8 µM	> 76.7 µM	2.38 µM	7.58 µM	1.7 µM	> 100 µM	2.96 µM	> 35.5 µM	3.83 µM	> 100 µM	26.5 µM	73 µM	–	–	15 µM	57.9 µM
NC1=C(O)/C(=N/NS(=O)(=O)c2ccccc2)C(c2cccc(Cl)c2)O1 (stereo not drawn)	–	> 100 µM	–	> 100 µM	–	> 100 µM	–	53 µM	–	27.9 µM	–	61.7 µM	–	73.5 µM	–	> 90.4 µM	–	35.8 µM	–	> 100 µM
O=P1(NCCCl)OCCC(OO)N1CCCl (stereo not drawn)	–	> 93.3 µM	–	> 100 µM	–	> 100 µM	–	33.4 µM	–	> 64 µM	–	> 100 µM	–	> 84.8 µM	–	> 100 µM	–	30.5 µM	–	> 82.6 µM
COc1ccccc1NC(=O)C(=O)C(C#N)CC(C)(C)C=O (stereo not drawn)	–	> 100 µM	–	> 100 µM	–	> 100 µM	–	> 100 µM	–	> 100 µM	–	> 100 µM	–	> 100 µM	–	> 100 µM	–	> 100 µM	–	> 100 µM
N[C@@H](Cc1ccc(N(CCCl)CCCl)cc1)C(=O)O	33.2 µM and 49.3 µM	> 100 µM and > 78.2 µM and 177 µM	51.3 µM and 37.5 µM and 52 µM	> 100 µM and 58.3 µM and 128 µM	28.7 µM and 4.34 µM	–	11.9 µM and 15 µM	52.3 µM and 42 µM and 103 µM	37.8 µM	190 µM	5.53 µM and 6.95 µM	> 100 µM and 50.4 µM and 97.2 µM	20.6 µM and 12.5 µM	> 100 µM and 45.5 µM and 84.7 µM	19.1 µM	> 100 µM and 64.7 µM and 140 µM	19.5 µM and 17.2 µM	> 100 µM and 56.8 µM and 157 µM	37.6 µM and 20.2 µM	> 100 µM and 58.9 µM and 119 µM
Nc1ncnc2c1c(-c1ccc(Oc3ccccc3)cc1)nn2C[C@H]1SSC[C@H]1O	1.84 µM	4.24 µM	0.309 µM	1.73 µM	0.039 µM	0.893 µM	2.03 µM	7.31 µM	0.197 µM	3.1 µM	0.0465 µM	1.2 µM	0.242 µM	0.968 µM	2.2 µM	> 31.3 µM	0.395 µM	> 100 µM	0.208 µM	1.36 µM
COc1cccc(-c2nn(C)c3sc(C(=O)NCCN4CCN(c5ccccc5F)CC4)cc23)c1	1.29 µM	27.3 µM	–	–	25.8 µM	> 100 µM	13.4 µM	> 100 µM	3.78 µM	> 100 µM	6.54 µM	> 100 µM	34.5 µM	> 100 µM	6.55 µM	96.6 µM	33.7 µM	> 100 µM	28.4 µM	> 100 µM
COc1cc(Cl)c(C)cc1NC(=O)c1cc2ccccc2cc1O	1.65 µM	4.77 µM	1.65 µM	9.03 µM	2.37 µM	10.3 µM	0.398 µM	3.57 µM	2.82 µM	23 µM	2.38 µM	13.2 µM	1.97 µM	8.19 µM	3.47 µM	14.1 µM	3.27 µM	13.6 µM	1.94 µM	5.93 µM
C=CCOc1ccc2c(c1)CC[C@@H]1[C@@H]2CC[C@]2(C)C(=O)/C(=N/O)C[C@@H]12	1.97 µM	21.3 µM	–	–	6.08 µM	> 49.3 µM	1.52 µM	5.98 µM	2.88 µM	8.61 µM	2.72 µM	13.2 µM	10.1 µM	52.8 µM	4.18 µM	> 45.4 µM	2.33 µM	12.2 µM	11.8 µM	59 µM
